Five compounds from US10925865B2, “Charged ion channel blockers and methods for use” (Nocion Therapeutics, Inc., priority 2019, dated 2021) can be followed below.

For data set [1], the system named is artificial lipid membrane. Put plainly: PAMPA membrane permeability assay. The format is in vitro ADME. The note with it: pH 7.4 buffer, GIT lipid, 4 hours incubation. The protocol:
The PAMPA assay (pION, Inc., Woburn Mass.) was used to determine the ability of compounds of the invention to cross an artificial lipid membrane by passive diffusion. Test compounds were dissolved in DMSO (10 mM) and diluted 200-fold in buffer (pION Inc., pH 7.4) to provide 50 uM stock solutions. Buffer (150 μL) was added to a UV blank plate and stock solutions (150 μL) were transferred to a UV reference plate. The blank and reference spectrum were read using a spectrophotometer. Stock solutions (200 μL) were added to the donor plate of the PAMPA sandwich plate and an accept plate painted with GIT lipid (pION Inc., 5 μL) was placed on top. Buffer (200 μL) was added to the acceptor plate and the PAMPA sandwich plate was incubated for 4 hours. Aliquots (150 μL) from the acceptor plate were added to a UV plate and read as acceptor spectrum. Aliquots (150 μL) of the donor solutions were added to a UV analysis plate and read as donor spectrum. The permeability coefficient of test compounds was calculated using PAMPA Explorer™ software (version 3.5.0.4) based on the AUC of the reference plate, the donor plate, and the acceptor plate.

The target of data set [2] is T1, NaV1.7 (Homo sapiens, UniProt Q15858).
T1 construct: expressed in transfected cells; host or cells: Tetracycline-inducible cell line kept under hygromycin and blasticidin selection
Kind of data set: Nav1.7 whole cell patch clamp, internal block (intracellular inhibition). The format is cell-based. Conditions: test concentration 10 μM, compound in internal solution, 5 Hz stimulation. The protocol:
(§1) The compounds were synthesized according to the described method and tested for the ability to inhibit voltage-gated sodium channels.
(§2) NaV1.7 was expressed upon induction with tetracycline. Cells were cultured in DMEM containing 10% dialyzed Fetal Bovine Serum (VWR, Radnor, Pa.), 1% Glutamax (VWR, Radnor, Pa.), 1% Penicillin-Streptomycin (VWR, Radnor, Pa.), 100 mg/L Hygromycin (Thermo Fisher Scientific, Waltham, Mass. and 5 mg/L Blasticidin (Alfa Aesar, Haverhill, Mass.). Cells were grown and maintained at 37° C. in a humidified environment containing 10% CO2 in air. Cells were detached from the culture flask for passage and harvested using 0.05% Trypsin-EDTA (Thermo Fisher Scientific, Waltham, Mass.). To induce NaV1.7, cells were induced with tetracycline ([…], IBI Scientific, Peosta, Iowa) the day before recording and plated onto 24-well plates. Cells were washed with DPBS (VWR, Radnor, Pa.), trypsinized and then triturated five times in 10 mL of growth media to break apart cell aggregates. For one 24-well plate, 2 mL of cell suspension was mixed with 23 mL of fresh growth media and […] tetracycline added. 1 ml of mixed media with cells was then added to each well of a 24-well plate, with a 12 mm coverslip already placed in the bottom of the well. Cells were then incubated in 37° C. and 10% CO2 overnight.
(§3) The intracellular solution contained the following (in mM) CsCl 135, NaCl 10, EGTA 10, HEPES 10, MgCl2 2, adjusted to pH 7.2 with CsOH. The external solution was a normal Ringer solution containing (in mM) NaCl 155, HEPES 10, glucose 10, KCl 3.5, CaCl2 1.5, MgCl2 1 adjusted to pH 7.4 with NaOH. CsCl is from Alfa Aesar, Haverhill, Mass. All other chemicals are from Sigma-Aldrich, St. Louis, Mo. In order to test the degree of internal block by test compounds the compounds were dissolved in internal solution at the indicated test concentration. […] In order to test the degree of external block by test compounds the compounds were dissolved in external solution at the indicated test concentration.
(§4) 18-24 hours after cells were induced with tetracycline, coverslips were placed into a chamber filled with Normal Ringer solution at room temperature and the chamber placed on a microscope. Pipettes were pulled from borosilicate glass on a P97 puller (Sutter Instrument, Novato, Calif.) and polished with a MF-830 Microforge (Narishige International USA, Inc., Amityville, N.Y.) to have a resistance of 1.5-2.5 MQ when filled with CsCl internal solution at room temperature. Healthy cells (those that are round and translucent with no visible blemishes) were chosen for seal formation. A seal was formed between the pipette and the cell, and a brief pulse of suction was used to “break in” and establish the whole-cell configuration. The membrane potential was held at −100 mV before the voltage protocol began. Only cells with series resistance between 1.5-5 MQ were retained for analysis. The voltage protocol was as follows: Cells were held at −100 mV for 12 ms followed by a hyperpolarizing step to −105 mV for 12 ms to monitor the leak. Cells were then stepped back to −100 mV for 40 ms. Cells were then depolarized to −20 mV for 10 ms and then returned to −100 mV for 26 ms (The FIGURE).
(§5) Once the recording was started, the voltage protocol was run at 30 second intervals for 5 minutes to get a stable baseline. […] Currents were recorded using PatchMaster software with Heka EPC10 (HEKA Electronics, Lambrecht, Germany). […]

Data set [3] addresses T1, NaV1.7. Kind of data set: Nav1.7 whole cell patch clamp, external block (extracellular application). Conditions: test concentration 30 μM, compound in external solution for 5 minutes, 5 Hz stimulation. The format is cell-based. On the procedure:
as §1, §2, §3, §4, §5

Each structure is given as a SMILES string.

T1 sequence (Q15858 whole entry): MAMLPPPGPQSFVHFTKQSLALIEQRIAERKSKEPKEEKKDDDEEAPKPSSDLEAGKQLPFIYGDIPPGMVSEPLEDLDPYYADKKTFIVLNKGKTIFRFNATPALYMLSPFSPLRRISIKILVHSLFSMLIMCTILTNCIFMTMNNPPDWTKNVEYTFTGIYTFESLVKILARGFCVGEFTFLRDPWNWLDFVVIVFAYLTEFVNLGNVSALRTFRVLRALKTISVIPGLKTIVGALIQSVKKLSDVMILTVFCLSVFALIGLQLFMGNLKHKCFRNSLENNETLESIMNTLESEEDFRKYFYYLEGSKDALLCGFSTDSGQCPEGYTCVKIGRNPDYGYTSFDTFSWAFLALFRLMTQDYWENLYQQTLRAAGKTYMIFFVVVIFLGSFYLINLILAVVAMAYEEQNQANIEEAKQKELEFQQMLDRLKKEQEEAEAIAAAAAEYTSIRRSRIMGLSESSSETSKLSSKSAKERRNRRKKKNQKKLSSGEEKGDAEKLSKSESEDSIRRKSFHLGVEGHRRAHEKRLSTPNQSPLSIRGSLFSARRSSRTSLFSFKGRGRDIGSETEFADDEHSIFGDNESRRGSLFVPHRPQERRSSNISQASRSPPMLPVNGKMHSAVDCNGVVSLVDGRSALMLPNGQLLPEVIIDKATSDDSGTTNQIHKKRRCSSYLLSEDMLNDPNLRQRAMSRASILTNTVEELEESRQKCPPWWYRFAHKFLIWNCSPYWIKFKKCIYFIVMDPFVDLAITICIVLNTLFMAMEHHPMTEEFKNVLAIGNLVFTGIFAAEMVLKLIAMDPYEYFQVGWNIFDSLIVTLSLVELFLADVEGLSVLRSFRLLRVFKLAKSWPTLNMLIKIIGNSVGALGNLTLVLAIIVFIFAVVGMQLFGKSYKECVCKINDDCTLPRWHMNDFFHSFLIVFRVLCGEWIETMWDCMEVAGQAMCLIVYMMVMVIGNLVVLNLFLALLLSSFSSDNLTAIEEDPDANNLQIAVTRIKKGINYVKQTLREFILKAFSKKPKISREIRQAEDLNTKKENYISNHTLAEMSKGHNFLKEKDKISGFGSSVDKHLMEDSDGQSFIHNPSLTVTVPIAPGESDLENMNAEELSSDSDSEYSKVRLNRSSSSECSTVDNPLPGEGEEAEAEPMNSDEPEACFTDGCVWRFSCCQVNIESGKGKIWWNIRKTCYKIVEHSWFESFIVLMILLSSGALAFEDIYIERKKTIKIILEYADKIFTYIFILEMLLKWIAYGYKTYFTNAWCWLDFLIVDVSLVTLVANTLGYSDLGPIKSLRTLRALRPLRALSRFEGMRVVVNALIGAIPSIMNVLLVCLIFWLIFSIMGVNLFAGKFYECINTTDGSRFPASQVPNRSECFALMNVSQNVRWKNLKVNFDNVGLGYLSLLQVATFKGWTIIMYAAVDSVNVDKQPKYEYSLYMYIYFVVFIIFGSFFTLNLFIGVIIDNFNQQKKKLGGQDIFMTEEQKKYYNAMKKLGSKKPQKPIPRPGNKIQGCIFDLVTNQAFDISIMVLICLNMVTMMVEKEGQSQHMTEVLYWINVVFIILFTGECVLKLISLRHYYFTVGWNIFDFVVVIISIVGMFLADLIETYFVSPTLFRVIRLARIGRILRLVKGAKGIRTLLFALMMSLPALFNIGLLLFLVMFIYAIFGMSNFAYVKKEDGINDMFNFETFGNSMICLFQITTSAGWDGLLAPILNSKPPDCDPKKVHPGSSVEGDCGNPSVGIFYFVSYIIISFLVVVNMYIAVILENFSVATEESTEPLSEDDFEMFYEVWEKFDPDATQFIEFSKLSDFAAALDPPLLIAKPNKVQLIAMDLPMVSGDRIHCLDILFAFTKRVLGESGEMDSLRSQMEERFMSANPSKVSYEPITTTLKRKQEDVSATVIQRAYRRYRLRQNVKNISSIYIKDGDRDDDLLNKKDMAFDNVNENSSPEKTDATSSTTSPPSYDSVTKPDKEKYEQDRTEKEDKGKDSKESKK

In data set [1], `Cc1cccc(C)c1NC(=O)C[n+]1cccc(-c2ccccc2)c1.[Br-]` [1′A, 1-(2-((2,6-dimethylphenyl)amino)-2-oxoethyl)-3-phenylpyridin-1-ium bromide] displayed a Papp at 4 h, 50 uM of less than 1 ×10⁻⁶ cm/s. Further, the inhibition at 10 µM against NaV1.7 [2] is greater than 75%. In addition, at NaV1.7 [3], the inhibition at 30 µM is less than 45%.

As for `Cc1cccc(C)c1NC(=O)C[n+]1ccccc1-c1ccccc1.[Br-]` [2′A, 1-(2-((2,6-dimethylphenyl)amino)-2-oxoethyl)-2-phenylpyridin-1-ium bromide], the apparent permeability coefficient (Papp) at 4 h, 50 uM in data set [1] is less than 1 ×10⁻⁶ cm/s. Further, the inhibition at 10 µM against NaV1.7 [2] is greater than 75%. Moreover, the inhibition at 30 µM against NaV1.7 [3] was less than 45%.

`CCc1ccc[n+](CC(=O)Nc2c(C)cccc2C)c1.[Br-]` [3′A, 1-(2-((2,6-dimethylphenyl)amino)-2-oxoethyl)-3-ethylpyridin-1-ium bromide] returned a Papp at 4 h, 50 uM in data set [1] of less than 1 ×10⁻⁶ cm/s. Moreover, the inhibition at 10 µM against NaV1.7 [2] was greater than 75%. Moreover, the inhibition at 30 µM on NaV1.7 [3] is less than 45%.

In data set [1], `CCc1cccc[n+]1CC(=O)Nc1c(C)cccc1C.[Br-]` [4′A, 1-(2-((2,6-dimethylphenyl)amino)-2-oxoethyl)-2-ethylpyridin-1-ium bromide] registered a Papp at 4 h, 50 uM of less than 1 ×10⁻⁶ cm/s. Besides, on NaV1.7 [2], the inhibition at 10 µM is greater than 75%. On NaV1.7 [3], this compound showed an inhibition at 30 µM of less than 45%.

Regarding `CCOC(=O)c1ccc[n+](CC(=O)Nc2c(C)cccc2C)c1` [5′A, 1-(2-((2,6-dimethylphenyl)amino)-2-oxoethyl)-3-(ethoxycarbonyl)pyridin-1-ium bromide], on NaV1.7 [2], the inhibition at 10 µM is greater than 75%. The same compound registered an inhibition at 30 µM on NaV1.7 [3] of less than 45%.
